{"source": "patent US9675697B2", "about": "(THE REGENTS OF THE UNIVERSITY OF MICHIGAN, priority 2013, dated 2017)", "key": {"MOLM-13": {"test_system": "MOLM-13", "assay": "Cell growth inhibition, CellTiter-Glo, acute leukemia cell line", "type": "cell-based", "conditions": "Homo sapiens, MOLM-13, 96 h, 4 days", "procedure": "(§1) Cell growth inhibitory activity of representative BET bromodomain inhibitors was determined using CellTiter-Glo® Luminescent Cell Viability Assay. For leukemia cell lines MV-4-11 (ATCC, Manassas, Va.) and MOLM-13 (DSMZ, Germany), cells were seeded in 96-well white opaque cell culture plates at a density of 10,000 cells/well with serially diluted compounds and incubated at 37° C. in an atmosphere of 95% air and 5% CO2 for 4 days. Cell viability was determined using the CellTiter-Glo® Luminescent Cell Viability Assay Kit (Promega, Madison, Wis.) according to the manufacture's instruction. Briefly, a volume of CellTiter-Glo® Reagent equal to the volume of cell culture medium was added to each well, and then the plates were incubated at room temperature for 10-20 minutes. The luminescent signal was measured using a Tecan Infinite M1000 multimode microplate reader (Tecan, Morrisville, N.C.). The half maximal inhibitory concentration (IC50) was calculated using the GraphPad Prism 5 software (GraphPad Software, La Jolla, Calif.)."}, "MV-4-11": {"test_system": "MV-4-11", "assay": "Cell growth inhibition, CellTiter-Glo, acute leukemia cell line", "type": "cell-based", "conditions": "Homo sapiens, MV4-11, 96 h, 4 days", "procedure": "as §1"}, "BT-474": {"test_system": "BT-474", "assay": "Cell growth inhibition, WST-8, breast cancer cell line", "type": "cell-based", "conditions": "Homo sapiens, BT-474, 96 h, 4 days", "procedure": "(§2) For breast cancer cell lines, cells were seeded in 96-well cell culture plates at a density of 5,000-10,000 cells/well with serially diluted compounds and incubated at 37° C. in an atmosphere of 95% air and 5% CO2 for 4 days. All the breast cancer cell lines were obtained from the ATCC. Cell viability was determined using the WST-8 (2-(2-methoxy-4-nitrophenyl)-3-(4-nitrophenyl)-5-(2,4-disulfophenyl)-2H-tetrazolium, monosodium salt) based Cell Counting-8 Kit (Dojindo Molecular Technologies, Inc., Rockville, Md.) according to the manufacture's instruction. Briefly, WST-8 was added to each well at a final concentration of 10% (v/v), and then the plates were incubated at 37° C. for 1-2 hours for color development. The absorbance was measured at 450 nm using a SPECTRAmax PLUS plate reader (Molecular Devices, Sunnyvale, Calif.). The IC50 was calculated using the GraphPad Prism 5 software."}, "MDA-MB-157": {"test_system": "MDA-MB-157", "assay": "Cell growth inhibition, WST-8, breast cancer cell line", "type": "cell-based", "conditions": "Homo sapiens, MDA-MB-157, 96 h, 4 days", "procedure": "as §2"}, "MDA-MB-231": {"test_system": "MDA-MB-231", "assay": "Cell growth inhibition, WST-8, breast cancer cell line", "type": "cell-based", "conditions": "Homo sapiens, MDA-MB-231, 96 h, 4 days", "procedure": "as §2"}, "MDA-MB-436": {"test_system": "MDA-MB-436", "assay": "Cell growth inhibition, WST-8, breast cancer cell line", "type": "cell-based", "conditions": "Homo sapiens, MDA-MB-436, 96 h, 4 days", "procedure": "as §2"}, "SK-BR-3": {"test_system": "SK-BR-3", "assay": "Cell growth inhibition, WST-8, breast cancer cell line", "type": "cell-based", "conditions": "Homo sapiens, SK-BR-3, 96 h, 4 days", "procedure": "as §2"}, "prostate VCaP cell line": {"test_system": "prostate VCaP cell line", "assay": "Cell growth inhibition, Cell TiterGLO, 4 days", "type": "cell-based", "conditions": "Homo sapiens, VCaP, 96 h, treated 4 days, read-out: VCaP cells (IC50 (nM))"}, "BRD2 BD1": {"target": "BRD2 BD1 (Homo sapiens (Human), UniProt P25440)", "sequence (P25440 74-180)": "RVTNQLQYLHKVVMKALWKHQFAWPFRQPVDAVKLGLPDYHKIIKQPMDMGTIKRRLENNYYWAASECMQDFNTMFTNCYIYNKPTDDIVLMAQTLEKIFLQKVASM", "assay": "FP competitive binding assay using Cpd. No. 350 as the probe", "conditions": "read-out: BRD2 BD1 Ki; FP, Cpd. No. 350 probe […]"}, "BRD2 BD2": {"target": "BRD2 BD2 (Homo sapiens (Human), UniProt P25440)", "sequence (P25440 344-453)": "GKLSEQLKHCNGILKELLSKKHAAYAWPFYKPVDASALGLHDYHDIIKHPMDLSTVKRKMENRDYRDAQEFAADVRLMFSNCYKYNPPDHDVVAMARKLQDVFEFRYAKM", "assay": "FP competitive binding assay using Cpd. No. 350 as the probe", "conditions": "read-out: BRD2 BD2 Ki; FP, Cpd. No. 350 probe […]", "method": "(§3) Fluorescence Polarization (FP) competitive binding studies (see above) were carried out using the FAM labeled fluorescent probe Cpd. No. 350 to determine binding affinities of representative compounds to both BD1 and BD2 of BRD2, BRD3, and BRD4 proteins. Equilibrium dissociation constants (Id) values of Cpd. No. 350 to these six proteins were determined from protein saturation experiments by monitoring the total fluorescence polarization of mixtures composed with the fluorescent probe at a fixed concentration and proteins with increasing concentrations up to full saturation. Serial dilutions of testing protein were mixed with Cpd. No. 350 to a final volume of 200 μl in the assay buffer. […] Plates were incubated at room temperature for 30 minutes with gentle shaking to assure equilibrium. […] Kd values of Cpd.\n(§4) The IC50 and Ki values of compounds were determined in a competitive binding experiment as described above. […] FP values were measured as described above. IC50 values were determined by nonlinear regression fitting of the competition curves."}, "BRD3 BD1": {"target": "BRD3 BD1 (Homo sapiens (Human), UniProt Q15059)", "sequence (Q15059 34-140)": "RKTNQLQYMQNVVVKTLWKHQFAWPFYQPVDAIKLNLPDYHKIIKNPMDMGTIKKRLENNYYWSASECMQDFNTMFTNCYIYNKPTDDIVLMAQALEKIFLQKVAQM", "assay": "FP competitive binding assay using Cpd. No. 350 as the probe", "conditions": "read-out: BRD3 BD1 Ki; FP, Cpd. No. 350 probe […]", "method": "as §3, §4"}, "BRD3 BD2": {"target": "BRD3 BD2 (Homo sapiens (Human), UniProt Q15059)", "sequence (Q15059 306-415)": "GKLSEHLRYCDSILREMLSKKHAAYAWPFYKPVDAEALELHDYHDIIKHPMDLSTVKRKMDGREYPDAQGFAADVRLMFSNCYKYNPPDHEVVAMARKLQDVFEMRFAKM", "assay": "FP competitive binding assay using Cpd. No. 350 as the probe", "conditions": "read-out: BRD3 BD2 Ki; FP, Cpd. No. 350 probe […]", "method": "as §3, §4"}, "BRD4 BD1": {"target": "BRD4 BD1 (Homo sapiens (Human), UniProt O60885)", "assay": "FP competitive binding assay using Cpd. No. 350 as the probe", "conditions": "read-out: BRD4 BD1 Ki; FP, Cpd. No. 350 probe […]", "method": "as §3, §4"}, "BRD4 BD2": {"target": "BRD4 BD2 (Homo sapiens (Human), UniProt O60885)", "assay": "FP competitive binding assay using Cpd. No. 350 as the probe", "conditions": "read-out: BRD4 BD2 Ki; FP, Cpd. No. 350 probe […]"}}}
{"smiles": "COc1cc2c(cc1-c1c(C)noc1C)[nH]c1nc(C)nc(-c3c(C)[nH]c4ccccc34)c12", "note": "[Cpd. No. 68]", "values": [{"measurement": "IC50", "setting": "MOLM-13", "result": "< 100", "unit": "nM"}, {"measurement": "IC50", "setting": "MV-4-11", "result": "< 100", "unit": "nM"}, {"measurement": "IC50", "setting": "BT-474", "result": "< 300", "unit": "nM"}, {"measurement": "IC50", "setting": "MDA-MB-157", "result": "< 300", "unit": "nM"}, {"measurement": "IC50", "setting": "MDA-MB-231", "result": "< 300", "unit": "nM"}, {"measurement": "IC50", "setting": "MDA-MB-436", "result": "< 300", "unit": "nM"}, {"measurement": "IC50", "setting": "SK-BR-3", "result": "< 300", "unit": "nM"}, {"measurement": "IC50", "setting": "prostate VCaP cell line", "result": 148, "unit": "nM"}, {"measurement": "Ki", "setting": "BRD2 BD1", "result": 3.2, "unit": "nM"}, {"measurement": "Ki", "setting": "BRD2 BD2", "result": 2.7, "unit": "nM"}, {"measurement": "Ki", "setting": "BRD3 BD1", "result": 5.1, "unit": "nM"}, {"measurement": "Ki", "setting": "BRD3 BD2", "result": 0.65, "unit": "nM"}, {"measurement": "Ki", "setting": "BRD4 BD1", "result": 7.3, "unit": "nM"}, {"measurement": "Ki", "setting": "BRD4 BD2", "result": 1.7, "unit": "nM"}]}
